Data from patent US20040063670A1, “Use of bisphosphonates for pain treatment” (priority 2000, published 2004).

What was measured:
Format in all cases: in vivo
[1] = tested on: rat model of inflammatory pain; test: Inflammatory mechanical hyperalgesia (FCA, Randal-Sellito paw withdrawal threshold); conditions: for maximal reversal of mechanical hyperalgesia: ipsilateral paw, 24 h after FCA
Procedure: Mechanical hyperalgesia was examined in a rat model of inflammatory pain. Paw withdrawal thresholds to an increasing pressure stimulus were measured by the Randal-Sellito technique using an analgesymeter (Ugo Basile, Milan), in naïve animals prior to an intraplantar injection of complete Freund's complete adjuvant (FCA) into the left hind paw. 24 h later paw withdrawal thresholds were measured again prior to (predose) and then from 10 min to 6 h following drug or vehicle administration. Reversal of hyperalgesia in the ipsilateral paw was calculated according to the formula: [formula]
(§1) All experiments were carried out using groups of 6 animals. Stock concentrations of drugs were dissolved in distilled water and subsequent dilutions were made in 0.9% saline for subcutaneous administration in a volume of 4 mlkg^−1. All drugs were made up in plastic vials and kept in the dark.
(§2) Statistical analysis was carried out on withdrawal threshold readings (g) using ANOVA with repeated measures followed by Tukey's HSD test. Efficacy refers to the maximal reversal of hyperalgesia observed at the doses used.

[2] = tested on: rat model of neuropathic pain; test: Neuropathic mechanical hyperalgesia (partial ligation of the left sciatic nerve)
Procedure: Mechanical hyperalgesia was examined in a rat model of neuropathic pain induced by partial ligation of the left sciatic nerve. Approximately 14 days following surgery mechanical withdrawal thresholds of both the ligated (ipsilateral) and non-ligated (contralateral) paw were measured prior to (predose) and then from 10 min to 6 h following drug or vehicle administration. Reversal of hyperalgesia at each time point was calculated according to the formula: [formula]
as §1, §2

[3] = tested on: rat model of bone cancer pain; test: Rat model of bone cancer pain (intra-tibial MRMZ1 mammary gland carcinoma cells)
Procedure: Adult female rats were given intra-tibial injections of MRMZ1 rat mammary gland carcinoma cells (3 μl, 10^7 cells/ml). These animals gradually developed mechanical hyperalgesia, mechanical allodynia (skin sensitivity to non-noxious stimuli) and hind limb sparing, beginning on day 12-14 following cell injection.

[4] = 10 and 30 μg/kg s.c. 3 times a week from the day of cell injection

O=P(O)(O)C(Cl)(Cl)P(=O)(O)O [Clodronate, 1,1-dichloromethane-1,1-diphosphonic acid]
reversing inflammatory mechanical hyperalgesia ([1]; 0.3-10 mgkg^−1 s.c.): ineffective
paw withdrawal thresholds ([1]; highest dose tested of 0.3-10 mgkg^−1 s.c.): slight reductions
activity in the model of neuropathic pain (reversal of hyperalgesia) ([2]; 0.3-10 mgkg^−1 s.c.): inactive
contralateral paw withdrawal thresholds ([2]; 0.3-10 mgkg^−1 s.c.): some reductions

NCCC(O)(P(=O)(O)O)P(=O)(O)O [Pamidronate, 3-amino-1-hydroxypropane-1,1-diphosphonic acid]
reversing inflammatory mechanical hyperalgesia ([1]; 0.03-1 mgkg^−1 s.c.): ineffective
paw withdrawal thresholds ([1]; highest dose tested of 0.03-1 mgkg^−1 s.c.): slight reductions
contralateral paw withdrawal thresholds ([2]; 0.03-1 mgkg^−1 s.c.): some reductions
maximal reversal of hyperalgesia ([2]; 0.03-1 mgkg^−1 s.c.): 20%

O=P(O)(O)C(O)(Cn1ccnc1)P(=O)(O)O [Zoledronate, 1-hydroxy-2-(imidazol-1-yl)ethane-1,1-diphosphonic acid]
time to maximal reversal of mechanical hyperalgesia ([1]; 0.003-0.1 mgkg^−1 s.c.): ≤ 30 min
activity 3 h following administration (duration) ([1]; 0.003-0.1 mgkg^−1 s.c., 3 h after administration): no significant activity
maximal reversal of mechanical hyperalgesia ([1]; 0.003-0.1 mgkg^−1 s.c.): 100%
maximal reversal of mechanical hyperalgesia ([1]; 0.003-0.1 mgkg^−1 s.c., listed as zoledronic acid): about 100%
contralateral activity ([1]; highest dose of 0.003-0.1 mgkg^−1 s.c., contralateral paw): Some contralateral activity
hind limb sparing [3, 4]: profound inhibition
mechanical allodynia [3, 4]: profound inhibition
development of hind limb sparing over 19 days ([3]; higher dose (30 μg/kg s.c. 3 times a week), 19 days following intra-tibial cell injection): did not develop any sign of hind limb sparing
acute effect of a single injection ([3]; single injection 100 μg/kg s.c. on day 19): no acute effect
time to maximal reversal of mechanical hyperalgesia ([2]; 0.003-0.1 mgkg^−1 s.c.): ≤ 30 min
reversal of mechanical hyperalgesia (maximal) ([2]; 0.003-0.1 mgkg^−1 s.c., about 14 days after surgery): 40%
contralateral paw withdrawal thresholds ([2]; highest dose of 0.003-0.1 mgkg^−1 s.c.): significant reduction

CN1CC[C@]23c4c5ccc(O)c4O[C@H]2[C@@H](O)C=C[C@H]3[C@H]1C5 [morphine]
mechanical allodynia ([3]; acute treatment, 1-10 mg/kg s.c.): dose dependent reduction
hind limb sparing ([3]; acute treatment, highest dose only (of 1-10 mg/kg s.c.)): significant reduction
